Results from paper PMC3673949, “Small Molecule R1498 as a Well-Tolerated and Orally Active Kinase Inhibitor for Hepatocellular Carcinoma and Gastric Cancer Treatment via Targeting Angiogenesis and Mitosis Pathways” (PLoS ONE, 2013).
“And” between values parts separate entries of the source, which are not always exact repeats. Identical values can stand only once.

Tests used:
[1] = system: HUVEC (VEGF 165 stimulated); assay: VEGF-induced HUVEC proliferation assay; type: cell-based; conditions: Homo sapiens, 0.5% FBS with VEGF 165, 72 h
Procedure: Each cell line was seeded in a 96-well tissue culture plate (Corning, NY) at a predetermined density in 180 µL complete medium, attached overnight and treated by compound for another 72 h. Then the medium was discarded and replaced with 10% CCK-8 (Dojindo, Kumamoto, Japan) in complete medium, then incubated the plates for another 2 h. The OD450 was measured with SpectraMAX 190 spectrophotometer (MDS, Sunnyvale, CA). A background absorbance of ODblank was subtracted from all wells.
In VEGF-induced HUVEC proliferation assay, the HUVECs suspended in 170 µL EGM-2 with 0.5% FBS were seeded and incubated overnight. After the cells attached, 10 µL 1 µg/ml recombinant human VEGF 165 (R&D systems, Minneapolis, MN) was added to each well together with 20 µl compound solutions prepared in EGM-2 with 0.5% FBS. The CCK-8 assay as above was used for determination of cell viability.

CD31 = assay: Immunohistochemistry of BEL-7402 tumors, angiogenesis marker; type: in vivo, BALB/C nu/nu nude mice; conditions: BEL-7402 tumors from efficacy study
Procedure: The 8 µm paraffin embedded tumor tissue slides prepared from tumor of in vivo efficacy studies were heated in a dry oven at 60°C for 1 hour, then deparaffinized and hydrolyzed by Leica autostainer XL ST5010 at room temperature. Antigen retrieval was carried out at 95∼99°C in citrate buffer (0.01 M, pH 6.0) heated by a medical microwave at 92–98°C for 5 min, then cooled down to room temperature. Then peroxidase-blocking reagent (DAKO, DK-2600, Glostrup Denmark) was applied to quench the endogenous peroxidase. The slides were incubated in blocking serum for 20 min, then covered by 100 µL phospho-Aurora A (Thr288) (C39D8) rabbit mAb (CST #3079, 1∶200 in TBS/T) or rabbit anti-human CD31 polyclonal antibody (Santa Cruz Biotech, sc-8306, Santa Cruz, CA, USA; 1∶200 in TBS/T) at 4°C overnight, then incubated in 100 µL DAKO Envision+/HRP, rabbit/mouse after being washed thoroughly with TBS. One hundred micro liters of substrate-chromogenic solution (DAB) were applied to the slides and incubated at room temperature for 10 min. The slides were rinsed gently with tap water for 15 min. Counterstain and dehydration was performed by XL ST5010 at room temperature. Finally, the slides were mounted with Permount mounting medium (Fisher Scientific, Miami, FL).

BEL-7402 cells = assay: Cell cycle distribution by flow cytometry; type: cell-based, human; conditions: BEL-7402, 10 µM
Procedure: (§1) DNA content was measured with a FACS-Calibur cytometer (Becton Dickinson, San Jose, CA) and cell cycle distribution was calculated as described previously.

SGC-7901 cells = assay: Cell cycle distribution by flow cytometry; type: cell-based, human; conditions: SGC-7901, 10 µM
Procedure: as §1

[2] = system: human primary gastric tumor derived xenografts; assay: Three human GC primary tumor derived xenograft models (overall); type: in vivo, BALB/C nu/nu nude mice; conditions: three patient derived gastric xenografts, 25 mg/kg
Procedure: In human primary tumor models, fresh human gastric tumor tissues were directly implanted into nonobese diabetic and severe combined immune-deficient (NOD-SCID) mice within 5 hours post-surgery with 5 mm^3 fragments to establish primary tumor xenograft models. […] Treatment began when tumor volume reached 100∼150 mm^3. The tumor measurement and operation protocol was the same as cell line derived tumor model.

SGC-7901 xenograft = assay: Xenograft efficacy study; type: in vivo, BALB/C nu/nu nude mice
Procedure: (§2) Tumor cells were inoculated into the right flank of BALB/C nu/nu female nude mice (5∼6 weeks, 16∼18 g, obtained from Sino-British SIPPR/BK Lab. Animal Ltd, Shanghai, China) at optimal density based on our in-house validation study. After the tumor was established and reached 100∼150 mm^3, the mice were randomized into ten mice per group and received treatment according to the schedule. The tumor growth was recorded three times a week with the measurement of length (L) and width (W) by caliper, and calculated as tumor volume (TV, mm^3) = 0.5*L*W*W (mm). […] The tumor regression of individual mouse was defined - the tumor volume at the end was less than the tumor volume when treatment was initiated.

phospho-histone H3 (S10) = assay: Immunofluorescence / western blot of Aurora B activity marker in SGC-7901; type: cell-based, human
Procedure: Cell lysate was prepared in RIPA buffer and quantified by the bicinchoninic acid (BCA) method (Pierce, Rockford, IL). Thirty micrograms of protein per sample was loaded onto a 4∼12% NuPAGE® Novex SDS gel (Invitrogen). The protein was transferred by an iBlot® dry blotting device (Invitrogen) onto nitrocellulose membranes. After blocking nonspecific binding with TBS/Tween20 (0.1%) (TBS/T) containing 5% non-fat milk for 1 h at room temperature, the membrane was incubated in phospho-Aurora A (Thr288) (C39D8) rabbit monoclonal antibody (Cell Signaling Technology, CST #3079, Beverly, MA) or phospho-Histone H3 (Ser10) rabbit polyclonal antibody (CST#9701) (1∶1000 in TBS/T containing 3% bovine serum albumin (BSA), and gently shaken at 4°C overnight. The membrane was washed with TBS/T three times to remove the unbound antibody, then incubated with the secondary antibody (HRP-conjugated goat anti-mouse IgG or goat anti-rabbit IgG, 1∶10000, KangChen Biotech, Shanghai, China) for 1 h at room temperature, respectively. Protein bands were visualized with an enhanced chemiluminescence (ECL) kit (Pierce, Rockford, IL). […]

HGC-27 xenograft = assay: Xenograft efficacy study; type: in vivo, BALB/C nu/nu nude mice; conditions: HGC-27, 25 mg/kg twice a day per oral gavage
Procedure: as §2

## COc1ccc2c(c1)C(c1ccccc1Cl)=Nc1c(n[nH]c1C)N2 [R1498]
[1]
  IC50: 89 nM
CD31
  CD31 staining in tumors: decreased in a dose-dependent manner
BEL-7402 cells; control 6.7%
  cells with >4N DNA content: 17.6%
BEL-7402 cells; control 25.6%
  cells in G2/M phases: 57.0%
SGC-7901 cells; control 3.1%
  cells with >4N DNA content (polyploid cells): 21.6%
SGC-7901 cells; control 25.2%
  cells in G2/M phases: 75.5%
[2]
  Final TGI%: 73.6 ∼ 91.6%
  regression rates: 10–30% and 10∼30%
SGC-7901 xenograft; SGC-7901, 25 mg/kg twice a day per oral gavage, day of study termination (Table S2)
  Final TGI%: 100%
SGC-7901 xenograft; SGC-7901, 25 mg/kg twice a day per oral gavage, before vs after treatment
  Body weight changes%: 2%
SGC-7901 xenograft; SGC-7901, 25 mg/kg twice a day per oral gavage, mice with regression/group
  Tumor Regression: 5/10
SGC-7901 xenograft; SGC-7901, 6.25 mpk, bid, PO
  Final TGI%: 69%
SGC-7901 xenograft; SGC-7901, 12.5 mpk, bid, PO
  Final TGI%: 83%
phospho-histone H3 (S10); SGC-7901, 5 µM, 24 h
  phospho-histone H3 (S10) (immunofluorescence): decreased sharply
phospho-histone H3 (S10); SGC-7901 synchronized with nocodazole, various concentrations, acute treatment
  phosphorylation of phospho-histone H3 (S10) (western blot): decreased in a concentration-dependent manner
HGC-27 xenograft; day of study termination
  Final TGI%: 85%
HGC-27 xenograft; before vs after treatment
  Body weight changes%: 6%
HGC-27 xenograft; mice with regression/group
  Tumor Regression: 0/10
